Reference: patent US20050065348A1, “Pyridin-2-yl-methylamine derivatives for treating opioid dependence” (priority 2001, published 2005)
Where a name gives a salt, the structure may show the parent alone.

Experiments:
5-HT1A receptor = target: T1, 5-HT1A receptor (Rattus norvegicus, UniProt P19327); experiment: Affinity for the 5-HT1A receptor (3H-8-OH-DPAT displacement); assay type: binding; details: Tissue: cerebral cortex of rat, average of at least 3 experiments
T1 construct: Tissue: cerebral cortex of rat; from tissue; host or cells: rat cerebral cortex
T1 sequence (P19327 1-422): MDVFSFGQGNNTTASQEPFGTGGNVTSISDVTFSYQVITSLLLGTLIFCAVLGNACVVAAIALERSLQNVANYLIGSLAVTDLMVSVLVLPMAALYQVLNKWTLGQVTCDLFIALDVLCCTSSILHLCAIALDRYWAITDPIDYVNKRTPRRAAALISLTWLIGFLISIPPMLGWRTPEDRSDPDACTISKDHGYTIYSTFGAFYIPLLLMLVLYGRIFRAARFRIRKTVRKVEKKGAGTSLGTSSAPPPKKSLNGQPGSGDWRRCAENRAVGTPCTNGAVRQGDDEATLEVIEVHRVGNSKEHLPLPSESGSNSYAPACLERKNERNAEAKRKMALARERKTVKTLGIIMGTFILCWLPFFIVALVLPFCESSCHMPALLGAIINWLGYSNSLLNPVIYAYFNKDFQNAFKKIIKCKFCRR
Method: Measurement of the affinity of compound F and reference products for the 5-HT1A receptor
Study of the bond with the 5-HT1A receptor was carried out according to a standard method (Naunyn-Schmiedeberg's Arch. Pharmaco. 1991, 343, 106). The inhibition constants (Ki) of the products according to the invention were estimated from displacement experiments using the version 4 RADLIG non-linear regression programme of EBDA (Equilibrium Binding Data Analysis) (Biosoft, Cambridge, UK, Mc Pherson, 1985). The dissociation constants of the radioactive ligands used in the calculations are 0.31 nmole for ^3H-8-OH-DPAT. The values of pKi (−logKi) are provided under the form of average±SEM of at least 3 experiments.

[1] = system: morphine withdrawal syndrome (hyperalgesia); experiment: Effects on morphine dependence: naloxone-precipitated withdrawal hyperalgesia (Randall and Selitto nociceptive thresholds); assay type: in vivo; details: rat, s.c. osmotic mini-pumps 2 weeks
Method: The products are administered by means of osmotic mini-pumps (model 2ML2; flow rate 5 μl/hr: Alza Corporation, Palo Alto, USA) implanted subcutaneously on the first day of the experiment and extracted two weeks later. The pump is set in place through a transversal incision made in the skin of the dorsal face of the rat, the liberation orifice being directed towards the head.
The compound F is administered at 0.63 mg/rat/day (5.25 mg/ml) in solution in distilled water. […] The pumps implanted in the control animals release 0.12 ml of 0.9% NaCl (saline)/rat/day; the doses referring to the weight of the non salified compound.
The study consists of two phases: a phase of chronic treatment lasting 2 weeks, and a withdrawal phase lasting 1 week.
On the experiment's first day the rats were given implants of two osmotic mini-pumps.
After two weeks of chronic treatment, the withdrawal phase began. After taking base measurements on day 14, all the animals received a sub-cutaneous injection of naloxone at 0.63 mg/kg. Next, 30 minutes, 1 hr, 2 hr, 4 hr, and 8 hr after the injection, another series of measurements was taken. The pumps were extracted after the last measurement at 8 hr after the naloxone injection. A series of measurements was also taken daily 24 hr to 4 days after the naloxone injection. During this withdrawal period, the nociceptive thresholds were measured using the Randall and Selitto method (Arch. Int. Pharmacodyn. 1957, CXI, 409) in which increasing pressure is applied to the back paw until the vocalisation threshold is reached. The results are expressed in grams and a 750 g limit is imposed.
In order to evaluate the nociceptive thresholds, the areas under the curves (AUCs) were determined and processed by a variance analysis (ANOVA). The post-hoc comparisons (i.e. those following the variance analysis when the latter is significant) were made using the Student-Newman-Keuls (SNK) test for comparing groups with each other. A statistically significant effect was defined at p<0.05.

| Compound | pKi site 5-HT1A (5-HT1A receptor) | AUC of nociceptive thresholds 30 minutes to 4 days after naloxone, versus control animals ([1]; co-treatment morphine 5 mg/rat/day + compound 0.63 mg/rat/day, naloxone 0.63 mg/kg s.c., SNK p>0.05) | AUC of nociceptive thresholds 30 minutes to 4 days after naloxone, compound alone versus control animals ([1]; saline + compound 0.63 mg/rat/day, no morphine, p>0.05) | Ki (5-HT1A receptor; read-out: pKi site 5-HT1A (converted)) | Effect on hyperalgesia / morphine withdrawal syndrome (AUC of nociceptive thresholds) ([1]; co-treatment morphine 5 mg/rat/day + compound 2.5 mg/rat/day, naloxone 0.63 mg/kg s.c., SNK p<0.05 vs control) |
| --- | --- | --- | --- | --- | --- |
| Cc1ccc(CNCC2(F)CCN(C(=O)c3ccc(F)c(Cl)c3)CC2)nc1 [compound F, (3-Chloro-4-fluorophenyl)-(4-fluoro-4-{[(5-methyl-pyridin-2-yl-methyl)-amino]-methyl}-piperidin-1-yl)-methadone fumarate] | 9.07 | statistically comparable with those obtained from the control animals | does not induce an effect on its own |  |  |
| Clc1cnn(CCCCN2CCN(c3ncccn3)CC2)c1 [lesopitron, reference compound] |  |  |  | 55 nM | did not have any detectable effect on the hyperalgesia |
